Laboratory results taken from PubChem BioAssay (NCI).
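Growth conditions: 96-well plates. Treatment: test compound, 48 hours, 5 concentrations. Analysis: linear interpolation between bracketing concentrations; unreached endpoints set to highest concentration. The concentration for full growth arrest is given as TGI.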

Tests used:
Test in all cases: DTP human tumour cell line panel, 48 h
[1] = system: HOP-92 NSCLC
[2] = system: SN12C renal
[3] = system: SW-620 colon
[4] = system: A549 NSCLC
[5] = system: OVCAR-8 ovarian
[6] = system: SK-MEL-5 melanoma
[7] = system: CAKI-1 renal

Structure (SMILES)	TGI [1] [µM]	TGI [2] [µM]	TGI [3] [µM]	TGI [4] [µM]	TGI [5] [µM]	TGI [6] [µM]	TGI [7] [µM]
CCOC(=O)C1=C(c2ccccc2)C12N(Cc1ccccc1)C(=O)C2(c1ccccc1)c1ccccc1 (configuration not stated)	87.5	> 100	> 100	–	–	–	–
O=C1c2cc3c(cc2CC1Cc1ccc2c(c1)CCC2)CCC3 (configuration not stated)	–	> 100	> 100	> 100	> 100	> 100	–
N#Cc1ccc(C2Oc3ccc(Cl)cc3C=C2[N+](=O)[O-])cc1 (configuration not stated)	2.83	–	–	3.3	–	2.68	2.96
